# Source: ChEMBL document CHEMBL1201862, “PubChem BioAssay data set” (2004)
#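 Cells were grown in 96-well plates and exposed to each compound for 48 hours at five concentrations; endpoints were interpolated linearly between bracketing concentrations, or set to the highest concentration if not reached. GI50: concentration for 50% inhibition of growth.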 Active and inactive are the calls of the source. No stated cut-off is given here; in the data, active = GI50 up to about 1.1 µM and inactive = higher.
# Key:
# Assay in all cases: NCI-60 cell line screen, 48 h
# [1] = test system: MOLT-4
# [2] = test system: HCT-116
# [3] = test system: NCI-H460
# [4] = test system: NCI/ADR-RES
# [5] = test system: NCI-H522
# [6] = test system: MDA-MB-231
# [7] = test system: T47D
# [8] = test system: LOX IMVI
# [9] = test system: OVCAR-8
# [10] = test system: U-251
# [11] = test system: HCC 2998
# [12] = test system: TK-10
# [13] = test system: SNB-19
# [14] = test system: KM12
# [15] = test system: 786-0
# [16] = test system: M14
# [17] = test system: BT-549
# [18] = test system: UACC-62
# [19] = test system: NCI-H226
# [20] = test system: SR
# [21] = test system: MDA-MB-435
# [22] = test system: K562
# [23] = test system: HT-29
# [24] = test system: CCRF-CEM
# [25] = test system: HCT-15
# [26] = test system: RXF 393
# [27] = test system: UACC-257
# [28] = test system: SW-620
# [29] = test system: ACHN
# [30] = test system: SF-539
# [31] = test system: SF-295
# [32] = test system: COLO 205
# [33] = test system: HL-60
# [34] = test system: MDA-N
# [35] = test system: NCI-H23
# [36] = test system: MCF7
# [37] = test system: SF-268
# [38] = test system: HOP-62
# [39] = test system: Malme-3M
# [40] = test system: SN12C
# [41] = test system: SK-MEL-2
# [42] = test system: SK-OV-3
# [43] = test system: OVCAR-3
# [44] = test system: UO-31
# [45] = test system: OVCAR-5
# [46] = test system: EKVX
# [47] = test system: IGROV-1
# [48] = test system: SK-MEL-28
# [49] = test system: DU-145
# [50] = test system: HOP-92
# [51] = test system: CAKI-1
# [52] = test system: PC-3
# [53] = test system: SNB-75
# [54] = test system: OVCAR-4
# [55] = test system: SK-MEL-5
# [56] = test system: RPMI-8226
# [57] = test system: A498
# [58] = test system: A549
compound,measurement,setting,value
O=C1CCN2c3ccccc3[C@H]3Cc4cccc(c4[C@@H]2C3)CCO1,GI50,[1],20.3 µM (inactive)
same,GI50,[2],21.6 µM (inactive)
same,GI50,[3],> 100 µM (inactive)
same,GI50,[4],23.6 µM (inactive)
same,GI50,[5],28.4 µM (inactive)
same,GI50,[6],83 µM (inactive)
same,GI50,[7],36.7 µM (inactive)
same,GI50,[8],34.6 µM (inactive)
same,GI50,[9],31.7 µM (inactive)
same,GI50,[10],40.5 µM (inactive)
same,GI50,[11],> 100 µM (inactive)
same,GI50,[12],65.6 µM (inactive)
same,GI50,[13],86.9 µM (inactive)
same,GI50,[14],34.9 µM (inactive)
same,GI50,[15],41.8 µM (inactive)
same,GI50,[16],19.4 µM (inactive)
same,GI50,[17],57.8 µM (inactive)
same,GI50,[18],43.5 µM (inactive)
same,GI50,[19],32.9 µM (inactive)
same,GI50,[20],26.1 µM (inactive)
same,GI50,[21],40.4 µM (inactive)
same,GI50,[22],21.8 µM (inactive)
same,GI50,[23],36.6 µM (inactive)
same,GI50,[24],28.8 µM (inactive)
same,GI50,[25],26.9 µM
same,GI50,[26],47.4 µM (inactive)
same,GI50,[27],29.4 µM (inactive)
same,GI50,[28],35.3 µM (inactive)
same,GI50,[29],44 µM (inactive)
same,GI50,[30],79.3 µM (inactive)
same,GI50,[31],32.4 µM (inactive)
same,GI50,[32],33.5 µM (inactive)
same,GI50,[33],25.5 µM (inactive)
same,GI50,[34],26.2 µM (inactive)
same,GI50,[35],35.3 µM (inactive)
same,GI50,[36],41.5 µM (inactive)
same,GI50,[37],72.4 µM (inactive)
same,GI50,[38],56.2 µM (inactive)
same,GI50,[39],25.2 µM (inactive)
same,GI50,[40],16.3 µM (inactive)
same,GI50,[41],38 µM (inactive)
same,GI50,[42],51.2 µM (inactive)
same,GI50,[43],26.5 µM (inactive)
same,GI50,[44],22.9 µM (inactive)
same,GI50,[45],> 100 µM (inactive)
same,GI50,[46],38.5 µM (inactive)
same,GI50,[47],22 µM (inactive)
same,GI50,[48],56.4 µM (inactive)
same,GI50,[49],68.4 µM (inactive)
same,GI50,[50],31 µM (inactive)
same,GI50,[51],41.9 µM (inactive)
same,GI50,[52],32 µM (inactive)
same,GI50,[53],27.4 µM (inactive)
same,GI50,[54],57.1 µM (inactive)
same,GI50,[55],22.1 µM (inactive)
same,GI50,[56],31 µM (inactive)
same,GI50,[57],56.5 µM (inactive)
same,GI50,[58],33.9 µM (inactive)
CCOP(=O)(/C=C\n1ccc(=O)[nH]c1=O)OCC,GI50,[1],> 100 µM (inactive)
same,GI50,[2],> 100 µM (inactive)
same,GI50,[3],> 10 µM (inactive)
same,GI50,[4],> 100 µM (inactive)
same,GI50,[5],> 100 µM (inactive)
same,GI50,[6],> 100 µM (inactive)
same,GI50,[7],> 100 µM (inactive)
same,GI50,[8],> 100 µM (inactive)
same,GI50,[9],> 100 µM (inactive)
same,GI50,[10],> 100 µM (inactive)
same,GI50,[12],> 100 µM (inactive)
same,GI50,[13],> 100 µM (inactive)
same,GI50,[14],> 100 µM (inactive)
same,GI50,[15],> 100 µM (inactive)
same,GI50,[16],> 100 µM (inactive)
same,GI50,[17],> 100 µM (inactive)
same,GI50,[18],> 100 µM (inactive)
same,GI50,[19],> 100 µM (inactive)
same,GI50,[21],> 100 µM (inactive)
same,GI50,[22],> 100 µM (inactive)
same,GI50,[23],> 100 µM (inactive)
same,GI50,[24],> 100 µM (inactive)
same,GI50,[25],> 100 µM
same,GI50,[26],> 100 µM (inactive)
same,GI50,[27],> 100 µM (inactive)
same,GI50,[28],> 100 µM (inactive)
same,GI50,[29],> 100 µM (inactive)
same,GI50,[30],> 100 µM (inactive)
same,GI50,[31],> 100 µM (inactive)
same,GI50,[32],> 100 µM (inactive)
same,GI50,[33],> 100 µM (inactive)
same,GI50,[34],> 100 µM (inactive)
same,GI50,[35],> 100 µM (inactive)
same,GI50,[36],> 100 µM (inactive)
same,GI50,[37],> 100 µM (inactive)
same,GI50,[38],> 100 µM (inactive)
same,GI50,[40],> 100 µM (inactive)
same,GI50,[41],> 100 µM (inactive)
same,GI50,[42],> 100 µM (inactive)
same,GI50,[43],> 100 µM (inactive)
same,GI50,[45],> 100 µM (inactive)
same,GI50,[46],> 100 µM (inactive)
same,GI50,[47],> 100 µM (inactive)
same,GI50,[48],> 100 µM (inactive)
same,GI50,[49],> 100 µM (inactive)
same,GI50,[51],> 100 µM (inactive)
same,GI50,[52],> 100 µM (inactive)
same,GI50,[53],> 100 µM (inactive)
same,GI50,[54],> 100 µM (inactive)
same,GI50,[55],> 100 µM (inactive)
same,GI50,[56],> 100 µM (inactive)
same,GI50,[57],> 100 µM (inactive)
same,GI50,[58],> 100 µM (inactive)
